Source: US20020037931A1, “Substituted nitrated catechols, their use in the treatment of some central and peripheral nervous system disorders and pharmaceutical compositions containing them” (priority 2000, published 2002)

Legend:
[1] = system: COMT; assay: COMT activity (methylation of adrenaline to metanephrine) in rat brain homogenates; type: biochemical; conditions: rat brain homogenate; test compound 100 nM; means±SEM, n=4-8
[2] = system: COMT; assay: COMT activity (methylation of adrenaline to metanephrine) in rat liver homogenates; type: biochemical; conditions: rat liver homogenate; test compound 3 μM; means±SEM, n=4-8
[3] = target: T1, COMT (Homo sapiens, UniProt P21964); assay: COMT activity in intact SK-N-SH cell monolayers; type: cell-based; conditions: SK-N-SH cells; test compound 100 nM; means±SEM, n=4-8
T1 construct: COMT activity was evaluated in cell monolayers by the ability to methylate adrenaline; host or cells: SK-N-SH cells
T1 sequence (P21964 1-271): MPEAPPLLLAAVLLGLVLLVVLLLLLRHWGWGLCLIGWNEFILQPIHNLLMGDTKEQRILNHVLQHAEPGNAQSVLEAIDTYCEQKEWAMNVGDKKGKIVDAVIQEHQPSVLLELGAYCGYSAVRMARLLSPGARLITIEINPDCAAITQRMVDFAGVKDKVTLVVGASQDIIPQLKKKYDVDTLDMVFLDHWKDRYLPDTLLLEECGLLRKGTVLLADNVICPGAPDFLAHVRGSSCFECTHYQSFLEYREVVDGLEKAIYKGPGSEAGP

Compound | COMT activity, Brain (% of control) [1] | COMT activity, Liver (% of control) [2] | COMT activity, SK-N-SH (% of control) [3]
O=C(CCN1CCN(c2cccc(C(F)(F)F)c2)CC1)c1ccc(O)c(O)c1[N+](=O)[O-] [Compound 38, 1-(3,4-Dihydroxy-2-nitro-phenyl)-3-[4-(3-trifluoromethyl-phenyl)-piperazin-1-yl]-propan-1-one] | 7 ± 0 % of control | 11.2 ± 1.5 % of control | 6 ± 1 % of control
CCCN1CCN(CCC(=O)c2ccc(O)c(O)c2[N+](=O)[O-])CC1 [Compound 39, 1-(3,4-Dihydroxy-2-nitro-phenyl)-3-(4-propyl-piperazin-1-yl)-propan-1-one] | 8 ± 0 % of control | 0.8 ± 0.2 % of control | 11 ± 0 % of control
CC(=O)Oc1ccc(C(=O)C=Cc2ccccc2)c([N+](=O)[O-])c1OC(C)=O [Compound 40, Acetic acid, 6-acetoxy-2-nitro-3-(3-phenyl-acryloyl)-phenyl ester] | 10 ± 0 % of control | 1.6 ± 0.4 % of control | 8 ± 1 % of control
O=C(C=Cc1ccccc1)c1ccc(O)c(O)c1[N+](=O)[O-] [Compound 41, 1-(3,4-dihydroxy-2-nitro-phenyl)-3-phenyl-propenone] | 9 ± 1 % of control | 1.1 ± 0.2 % of control | 5 ± 0 % of control
O=C(CN1CCOCC1)c1ccc(O)c(O)c1[N+](=O)[O-] [Compound 42, 1-(3,4-Dihydroxy-2-nitro-phenyl)-2-morpholin-4-yl-ethanone] | 13 ± 0 % of control | 0.8 ± 0.2 % of control | 27 ± 1 % of control
O=C1c2c(cc(O)c(O)c2[N+](=O)[O-])CC1CN1CCN(c2cccc(C(F)(F)F)c2)CC1 (stereo not drawn) [Compound 43, 5,6-Dihydroxy-7-nitro-2-[4-(3-trifluoromethyl-phenyl)-piperazin-1-ylmethyl]-indan-1-one] | 10 ± 1 % of control | 0.9 ± 0.2 % of control | 19 ± 7 % of control
O=C1c2c(cc(O)c(O)c2[N+](=O)[O-])CC1CN1CCN(c2ccccc2)CC1 (stereo not drawn) [Compound 44, 5,6-Dihydroxy-7-nitro-2-(4-phenyl-piperazin-1-ylmethyl)-indan-1-one] | 10 ± 0 % of control | 0.6 ± 0.2 % of control | 9 ± 2 % of control
CC(=O)Oc1ccc(C(=O)Cc2ccccc2)c([N+](=O)[O-])c1OC(C)=O [Compound 45, Acetic acid, 6-acetoxy-2-nitro-3-phenylacetyl-phenyl ester] | 0 ± 0 % of control | 0.7 ± 0.2 % of control | 7 ± 3 % of control
CCCC(=O)Oc1ccc(C(=O)Cc2ccccc2)c([N+](=O)[O-])c1OC(=O)CCC [Compound 47, Butyric acid, 6-butyryloxy-2-nitro-3-phenylacetyl-phenyl ester] | 0 ± 0 % of control | 0.6 ± 0.2 % of control | 1 ± 1 % of control
CCOC(=O)Oc1ccc(C(=O)Cc2ccccc2)c([N+](=O)[O-])c1OC(=O)OCC [Compound 48, Carbonic acid, 2-ethoxycarbonyloxy-3-nitro-4-phenylacetyl-phenyl ester ethyl ester] | 0 ± 0 % of control | 0.5 ± 0.1 % of control | 7 ± 3 % of control
